In assay [1] the target is human (h)CD73 (amino acids Trp27-Lys547) (Homo sapiens, UniProt P21589). Put plainly: CD73 inhibition assay (Malachite Green phosphate detection). It is filed as biochemical. The conditions noted are these: 250 pM hCD73, 12.5 μM AMP, 20 min pre-incubation, absorbance 620 nm. On the procedure:
Compound inhibition of human (h)CD73 (amino acids Trp27-Lys547, R&D Systems 5795-EN-500) enzymatic activity was tested via the Malachite Green Phosphate Detection Kit (R&D DY996). Experiments were performed in 20 μL Tris buffer (25 mM Tris pH 7.5, 5 mM MgCl2, 0.002% Tween20), with 250 pM of hCD73. Test compounds of interest were prepared in a threefold serial dilution in DMSO and added to the assay to give the appropriate final concentration, with the assay DMSO concentration being 1%. Compounds were pre-incubated for 20 minutes with hCD73 in a 384 well clear plate (Greiner 781101), followed by the addition of adenosine monophosphate (AMP) to 12.5 μM. The enzymatic reaction was carried out for 20 min at room temperature. 5 μL of Malachite kit reagent A was added to stop the reaction (contains 3M H2SO4) and after 10 min, 5 μL of Malachite kit reagent B was added (Malachite Green). After 30 min, absorbance at 620 nm was read on a BMG Pherastar FSX.
Data were normalised to measurements in the absence of competing compound (0% inhibition) and in the presence of 10 μM control compound (100% inhibition).

For the next assay, the target named is CD73 in whole blood (Homo sapiens (Human), UniProt P21589). The experiment in a line: Whole blood AMP Glo assay. It counts as cell-based. The conditions noted are these: whole blood of healthy volunteers, 10 μM AMP, 30 min pre-incubation, 15 min at 37° C., levamisole 1.5 mM. Here is the method: Blood is drawn from healthy volunteers by venepuncture and anti-coagulated with Lithium Heparin (10 IU/mi). 150 μl of blood is added to U-bottom polypropylene 96-well assay plates pre-filled with 20 μl of compound dilutions prepared in RPMI also containing the Tissue Non-specific Alkaline Phosphatase inhibitor Levamisole (final assay concentration 1.5 mM). Control wells to define uninhibited CD73 contain DMSO in place of compound. Control wells to define complete stabilization of AMP attributable to CD73 contain LY3475070 (CAS: 2375815-63-5) at 30 μM final assay concentration.
Chain of CD73 in whole blood (P21589 27-574): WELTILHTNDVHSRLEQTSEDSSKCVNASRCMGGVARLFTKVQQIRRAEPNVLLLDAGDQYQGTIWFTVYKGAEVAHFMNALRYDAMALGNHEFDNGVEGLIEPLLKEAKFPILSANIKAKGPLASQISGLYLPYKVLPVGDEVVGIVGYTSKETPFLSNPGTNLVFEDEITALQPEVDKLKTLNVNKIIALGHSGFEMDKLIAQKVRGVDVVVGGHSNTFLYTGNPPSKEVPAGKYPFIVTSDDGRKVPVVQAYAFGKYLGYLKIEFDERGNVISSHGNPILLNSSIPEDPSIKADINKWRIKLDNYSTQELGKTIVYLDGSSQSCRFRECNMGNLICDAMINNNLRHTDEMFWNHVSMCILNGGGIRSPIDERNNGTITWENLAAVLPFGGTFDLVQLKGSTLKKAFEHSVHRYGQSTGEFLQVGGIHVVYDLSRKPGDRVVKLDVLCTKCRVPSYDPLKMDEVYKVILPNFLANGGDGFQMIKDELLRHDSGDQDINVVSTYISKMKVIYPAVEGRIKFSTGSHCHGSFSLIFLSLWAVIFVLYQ
Compounds are pre-incubated with whole blood at 37° C. for 30 minutes. Following this, AMP is added in a 30 μl volume for a final assay concentration of 10 μM, mixed, and the plates are incubated for 15 minutes at 37° C. Final DMSO concentration/well is 0.6% and final volume/well is 200 μL. After incubating with AMP, the plates are placed on ice and then centrifuged at 2000 g for 10 minutes at 4° C. Plasma is removed and then diluted 1:10 with pre-chilled HBSS (Ca2+& Mg2+free) and kept on ice.
The stabilized AMP concentration in diluted plasma is measured using AMP-Glo kit (Promega), in parallel with a standard curve of known AMP concentrations, with a final volume of 40 μl in white flat bottom half-well 96-well plates (Corning). Signal is measured by Luminescence. The IC50 values of test compounds are determined as the inflection point of the sigmoidal concentration response curve.

Assay [2] addresses CD73 activity in U138-MG cells (Homo sapiens (Human), UniProt P21589). Put plainly: U138-MG inhibition assay (inorganic phosphate from AMP, PiColorLock Gold). The note with it: 100 μM AMP, 30 min pre-incubation, 1 hour at 37° C. It counts as cell-based. On the procedure:
U138-MG cells from ATCC are cultured in DMEM (Gibco 31966) with 10% FBS. Cells are seeded into 96-well culture plates (5,000 cell/well) in 100 μL of media for 24 hr. Cells are washed twice with 200 μL of assay buffer (20 mM HEPES, pH 7.4; 137 mM NaCl; 5.4 mM KCl; 1.3 mM CaCl2; 4.2 mM NaHCO3; 1 mg/mL glucose) to remove residual inorganic phosphate. CD73 inhibitor is added to each well in 100 μl volume and preincubated for 30 mins at 37° C. An equal volume of AMP substrate (Sigma A1572) is added to each well at a final concentration of 100 μM and incubated at 37° C. for 1 hour. Control wells containing cells but lacking added AMP, define the assay signal equivalent to 100% inhibition of CD73 activity. Supernatant is removed for measurement of inorganic phosphate using the PiColorLock Gold kit (Abcam, ab 270004).
The IC50 values of test compounds are determined as the inflection point of the sigmoidal concentration response curve.

Structures can show the parent of a compound that is named as a salt.

Chain of CD73 activity in U138-MG cells (P21589 27-574): as above

Regarding `O=c1[nH]cc(-c2cc3c(N4CCC(CO)C4)ncnc3s2)c(=O)[nH]1` (stereo not shown) [Example 1, 5-[4-[3-(Hydroxymethyl)pyrrolidin-1-yl]thieno[2,3-d]pyrimidin-6-yl]-1H-pyrimidine-2,4-dione], the results for the IC50 (in assay [1]; against CD73 in whole blood; in assay [2]) were 715 nM, 8750 nM and 2340 nM, respectively.
The matching figures for `O=c1[nH]cc(-c2cc3c(N4CCC(CCO)C4)ncnc3s2)c(=O)[nH]1` (stereo not shown) [Example 1.1, 5-[4-[3-(2-Hydroxyethyl)pyrrolidin-1-yl]thieno[2,3-d]pyrimidin-6-yl]-1H-pyrimidine-2,4-dione]: 677 nM, 8760 nM and 2310 nM.
Take `O=c1[nH]cc(-c2cc3c(N4CCC(OCCO)C4)ncnc3s2)c(=O)[nH]1` (stereo not shown) [Example 1.3, 5-[4-[3-(2-Hydroxyethoxy)pyrrolidin-1-yl]thieno[2,3-d]pyrimidin-6-yl]-1H-pyrimidine-2,4-dione]: the IC50 (in general, the concentration needed to halve the response being measured) is 489 nM in assay [1], 3160 nM against CD73 in whole blood and 717 nM in assay [2].
The like results for `O=c1[nH]cc(-c2cc3c(N4CCC(OCCN5CCCCC5)C4)ncnc3s2)c(=O)[nH]1` (stereo not shown) [Example 2, 5-[4-[3-[2-(1-Piperidyl)ethoxy]pyrrolidin-1-yl]thieno[2,3-d]pyrimidin-6-yl]-1H-pyrimidine-2,4-dione] were, in that order, 11.1 nM, 47 nM and 46.1 nM.
With `CC1(C)CCN(c2ncnc3sc(-c4c[nH]c(=O)[nH]c4=O)cc23)C1` [Example 2.1, 5-[4-(3,3-Dimethylpyrrolidin-1-yl)thieno[2,3-d]pyrimidin-6-yl]-1H-pyrimidine-2,4-dione], the IC50 in assay [1] was determined as 401 nM; on CD73 in whole blood, 6990 nM; in assay [2], 1120 nM.
The like results for `N#Cc1ccc(OC2CCN(c3ncnc4sc(-c5c[nH]c(=O)[nH]c5=O)cc34)C2)nc1` (stereo not shown) [Example 3, 6-[1-[6-(2,4-Dioxo-1H-pyrimidin-5-yl)thieno[2,3-d]pyrimidin-4-yl]pyrrolidin-3-yl]oxypyridine-3-carbonitrile] were, in that order, 59.6 nM, 2220 nM and 588 nM.
The like results for `CC1(C)CN(c2ncnc3sc(-c4c[nH]c(=O)[nH]c4=O)cc23)CC1(F)F` [Example 4, 5-[4-(3,3-Difluoro-4,4-dimethyl-pyrrolidin-1-yl)thieno[2,3-d]pyrimidin-6-yl]-1H-pyrimidine-2,4-dione] were, in that order, 87.3 nM, 4010 nM and 734 nM.
`O=c1[nH]cc(-c2cc3c(N4CCC(OCc5ccccn5)C4)ncnc3s2)c(=O)[nH]1` (stereo not shown) [Example 4.1, 5-[4-[3-(2-pyridylmethoxy)pyrrolidine-1-yl]thieno[2,3-d]pyrimidin-6-yl]-1H-pyrimidine-2,4-dione formate salt]: the half-inhibitory concentration (IC50) worked out at 96 nM in assay [1], 782 nM against CD73 in whole blood and 428 nM in assay [2].
The matching figures for `CN1CCOC(COC2CN(c3ncnc4sc(-c5c[nH]c(=O)[nH]c5=O)cc34)CC2(F)F)C1` (stereo not shown) [Example 4.3, 5-[4-[3,3-Difluoro-4-[(4-methylmorpholin-2-yl)methoxy]pyrrolidine-1-yl]thieno[2,3-d]pyrimidin-6-yl]-1H-pyrimidine-2,4-dione formate salt]: 269 nM, 516 nM and 498 nM.
The matching figures for `CN1CCOC(COC2CCN(c3ncnc4sc(-c5c[nH]c(=O)[nH]c5=O)cc34)C2)C1` (stereo not shown) [Example 4.4, 5-[4-[3-[(4-Methylmorpholin-2-yl)methoxy]pyrrolidine-1-yl]thieno[2,3-d]pyrimidin-6-yl]-1H-pyrimidine-2,4-dione]: 74.3 nM, 254 nM and 76.6 nM.
As to `O=c1[nH]cc(-c2cc3c(N4CC(OCCN5CCCCC5)C(F)(F)C4)ncnc3s2)c(=O)[nH]1` (stereo not shown) [Example 5, 5-[4-[3,3-Difluoro-4-[2-(1-piperidyl)ethoxy]pyrrolidine-1-yl]thieno[2,3-d]pyrimidin-6-yl]-1H-pyrimidine-2,4-dione formate salt], the IC50 in assay [1] turned out to be 32 nM; against CD73 in whole blood, 184 nM; in assay [2] it was 179 nM.
On to `O=c1[nH]cc(-c2nc3ncnc(N4CCC(OCCN5CCCCC5)C4)c3s2)c(=O)[nH]1` (stereo not shown) [Example 6, 5-[7-[3-[2-(1-Piperidyl)ethoxy]pyrrolidin-1-yl]thiazolo[4,5-d]pyrimidin-2-yl]-1H-pyrimidine-2,4-dione], for which the IC50 turned out to be 57.3 nM in assay [1], 27.5 nM against CD73 in whole blood and 18.7 nM in assay [2].
`O=c1[nH]cc(-c2cc3c(N4CCC(OCCN5CCCCC5)C4)ncnc3o2)c(=O)[nH]1` (stereo not shown) [Example 7, 5-[4-[3-[2-(1-Piperidyl)ethoxy]pyrrolidin-1-yl]furo[2,3-d]pyrimidin-6-yl]-1H-pyrimidine-2,4-dione formate salt]: the results for the IC50 (in assay [1]; on CD73 in whole blood; in assay [2]) were 22.8 nM, 12.5 nM and 7.2 nM, respectively.
Consider `CC1(C)CN(c2ncnc3oc(-c4c[nH]c(=O)[nH]c4=O)cc23)CC1(F)F` [Example 7.1, 5-[4-(3,3-Difluoro-4,4-dimethyl-pyrrolidin-1-yl)furo[2,3-d]pyrimidin-6-yl]-1H-pyrimidine-2,4-dione], for which the IC50 in assay [1] is 25.4 nM; at CD73 in whole blood, 444 nM; in assay [2] it was 22.8 nM.
The matching figures for `O=c1[nH]cc(-c2cc3ncnc(N4CCC(OCCN5CCCCC5)C4)c3s2)c(=O)[nH]1` (stereo not shown) [Example 8, 5-[4-[3-[2-(1-Piperidyl)ethoxy]pyrrolidin-1-yl]thieno[3,2-d]pyrimidin-6-yl]-1H-pyrimidine-2,4-dione]: 20.1 nM, 50.7 nM and 34.7 nM.
As to `Cc1cnc(N2CC(C)(C)C(F)(F)C2)c2cc(-c3c[nH]c(=O)[nH]c3=O)nn12` [Example 25.11, 5-[4-(3,3-difluoro-4,4-dimethyl-pyrrolidin-1-yl)-7-methyl-pyrazolo[1,5-a]pyrazin-2-yl]-1H-pyrimidine-2,4-dione], the values for the IC50 (on CD73 in whole blood; in assay [2]) were 200 nM and 23 nM, respectively.
The matching figures for `O=c1[nH]cc(-c2cc3c(N4CC(O)C(F)(F)C4)ncc(Cl)n3n2)c(=O)[nH]1` (stereo not shown) [Example 25.13, 5-[7-Chloro-4-(3,3-difluoro-4-hydroxy-pyrrolidin-1-yl)pyrazolo[1,5-a]pyrazin-2-yl]-1H-pyrimidine-2,4-dione]: 5 nM and 12 nM.
Take `COC1CN(c2ncc(Cl)n3nc(-c4c[nH]c(=O)[nH]c4=O)cc23)CC1(F)F` (stereo not shown) [Example 25.14, 5-[7-Chloro-4-(3,3-difluoro-4-methoxy-pyrrolidin-1-yl)pyrazolo[1,5-a]pyrazin-2-yl]-1H-pyrimidine-2,4-dione]: the values for the IC50 (at CD73 in whole blood; in assay [2]) were 20 nM and 7 nM, respectively.
The matching figures for `CC1(C)CCN(c2ncc(Cl)n3nc(-c4c[nH]c(=O)[nH]c4=O)cc23)C1` [Example 25.16, 5-[7-chloro-4-(3,3-dimethylpyrrolidin-1-yl)pyrazolo[1,5-a]pyrazin-2-yl]-1H-pyrimidine-2,4-dione]: 78 nM and 11 nM.
For `CC1(C)CCN(c2ncc(F)n3nc(-c4c[nH]c(=O)[nH]c4=O)cc23)C1` [Example 25.17, 5-[4-(3,3-dimethylpyrrolidin-1-yl)-7-fluoro-pyrazolo[1,5-a]pyrazin-2-yl]-1H-pyrimidine-2,4-dione], the IC50 amounted to 450 nM against CD73 in whole blood and 39 nM in assay [2].
